A word on the IC50: it is the concentration at which inhibition is half-maximal. What is called bioavailability is dose-corrected exposure relative to a reference, in per cent. A low value points to little systemic uptake. Broadly, the Cmax is the highest concentration seen after dosing.

The nature of series [1]: Percentage recovery after 3h incubation with rat hapatocytes was determined. The series is classed as ADME, organism-based. The settings on record: hepatocytes, read-out: Recovery.
The target in series [2] is T1, Prostaglandin G/H synthase 2 (Homo sapiens, UniProt P35354).
T1 sequence (P35354 whole entry): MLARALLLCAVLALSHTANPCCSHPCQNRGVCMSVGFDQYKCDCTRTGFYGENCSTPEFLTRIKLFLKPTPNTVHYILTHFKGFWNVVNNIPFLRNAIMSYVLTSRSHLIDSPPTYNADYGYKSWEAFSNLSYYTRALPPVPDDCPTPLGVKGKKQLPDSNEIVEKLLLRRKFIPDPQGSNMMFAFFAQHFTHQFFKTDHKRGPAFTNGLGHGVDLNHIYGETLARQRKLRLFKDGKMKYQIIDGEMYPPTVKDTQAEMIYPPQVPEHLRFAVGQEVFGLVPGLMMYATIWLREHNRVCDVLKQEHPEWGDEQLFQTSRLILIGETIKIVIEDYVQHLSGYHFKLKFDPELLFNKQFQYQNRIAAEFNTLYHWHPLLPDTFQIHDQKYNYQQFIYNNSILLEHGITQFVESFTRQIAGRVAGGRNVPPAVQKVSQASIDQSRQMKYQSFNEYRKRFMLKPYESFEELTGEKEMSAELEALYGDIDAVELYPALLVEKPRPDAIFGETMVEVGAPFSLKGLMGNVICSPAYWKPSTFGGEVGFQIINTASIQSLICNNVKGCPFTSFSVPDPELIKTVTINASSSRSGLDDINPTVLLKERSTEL
In kind it is cell-based, CHO.
Description: Tested in vitro for the ability to inhibit Prostaglandin G/H synthase 2 in chinese hamster ovary (CHO) cells

For series [3], the target named is Prostaglandin G/H synthase 1 (Homo sapiens, UniProt P23219).
Description: Tested in vitro for the ability to inhibit Prostaglandin G/H synthase 1 in chinese hamster ovary (CHO) cells
The target in series [4] is T1, Prostaglandin G/H synthase 2. The series is classed as organism-based, Blood.
Description: In vivo ability to inhibit Prostaglandin G/H synthase 2 in human whole blood assay
Series [5] can be described thus: Bioavailability at 4 hr after administration of 5 mg/kg dose peroral in rat. In kind it is ADME, organism-based. The following applies: in vivo, po.
For series [6], the species on record is Rattus norvegicus. Nature of the series: Plasma clearance in rat. The series is classed as ADME, organism-based. The settings on record: in vivo.
Series [7] can be described thus: Maximum concentration at 4 hr after administration of 5 mg/kg dose peroral in rat. In kind it is ADME, organism-based. The arrangement: dose 5 mg/kg, route oral. The following applies: in vivo, po.
The species entered for series [8] is Rattus norvegicus. As to the kind of experiment: Intrinsic activity in the rat pyresis assay. The series is classed as functional.
Series [9] is filed under the species Rattus norvegicus. Nature of the series: Intrinsic activity in the rat hyperalgesia assay. In kind it is functional. The following applies: read-out: ID50 (the source's name).
In series [10] the test system is Rattus norvegicus. Nature of the series: Intrinsic activity in the rat paw edema model. In kind it is functional.

Prostaglandin G/H synthase 1, sequence (P23219 whole entry): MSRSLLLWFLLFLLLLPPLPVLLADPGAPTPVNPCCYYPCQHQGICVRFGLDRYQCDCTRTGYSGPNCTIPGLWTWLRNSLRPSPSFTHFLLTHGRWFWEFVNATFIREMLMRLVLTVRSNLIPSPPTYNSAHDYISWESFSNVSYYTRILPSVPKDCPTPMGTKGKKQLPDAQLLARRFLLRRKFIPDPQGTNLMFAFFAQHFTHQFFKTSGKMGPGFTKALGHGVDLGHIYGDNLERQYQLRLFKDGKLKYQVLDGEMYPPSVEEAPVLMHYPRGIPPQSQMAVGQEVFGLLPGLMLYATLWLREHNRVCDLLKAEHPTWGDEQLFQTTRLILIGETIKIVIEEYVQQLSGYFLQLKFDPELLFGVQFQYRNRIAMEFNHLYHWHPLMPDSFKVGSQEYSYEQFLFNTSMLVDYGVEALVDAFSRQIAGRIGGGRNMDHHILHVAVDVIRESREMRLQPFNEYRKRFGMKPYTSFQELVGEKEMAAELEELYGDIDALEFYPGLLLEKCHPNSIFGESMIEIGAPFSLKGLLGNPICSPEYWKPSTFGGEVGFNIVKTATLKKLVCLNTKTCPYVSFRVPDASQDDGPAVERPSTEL

As for `CS(=O)(=O)c1ccc(-c2c(-c3ccccc3)nc3sccn23)cc1`, the remaining at 3 h in [1] is less than 10%.
Take `CS(=O)(=O)c1ccc(-c2sc3nc(C(F)(F)F)nn3c2-c2cccc(F)c2)cc1`: the IC50 came out at 0.013 µM in series [2] and 8.5 µM in series [3].
Turning to `CS(=O)(=O)c1ccc(-c2sc3ncnn3c2-c2cc(F)cc(F)c2)cc1`, the IC50 in series [2] was 0.08 µM; in series [3], greater than 50 µM.
In the same order, the values of `CCc1nc2sc(-c3ccc(S(C)(=O)=O)cc3)c(-c3ccccc3)n2n1` are 0.015 µM and 2.4 µM.
`CS(=O)(=O)c1ccc(-c2sc3nc(C(F)(F)F)nn3c2-c2ccccc2)cc1` returned an IC50 in [3] of 1.1 µM.
On to `CS(=O)(=O)c1ccc(-c2sc3ncnn3c2-c2ccc(F)cc2)cc1`, for which the IC50 in series [2] was determined as 0.036 µM; in series [3], 15 µM.
As for `CS(=O)(=O)c1ccc(-c2c(-c3ccccc3)sc3nc(C(F)(F)F)nn23)cc1`, the IC50 in series [2] is greater than 50 µM; in series [3] it was 9 µM.
Taken in the same sequence, the figures for `CS(=O)(=O)c1ccc(-c2c(-c3ccccc3)sc3nncn23)cc1` were 0.23 µM and 2.1 µM.
In the case of `C=Cc1nc2sc(-c3ccc(S(C)(=O)=O)cc3)c(-c3ccccc3)n2n1`, the IC50 in series [2] was 0.006 µM; in series [4], 4.1 µM; in series [3], 9.6 µM.
Taken in the same sequence, the figures for `CS(=O)(=O)c1ccc(-c2sc3ncnn3c2-c2cccc(F)c2)cc1` were 0.022 µM, 4.2 µM and greater than 50 µM.
As for `CS(=O)(=O)c1ccc(-c2sc3ncnn3c2-c2ccccc2)cc1`, the bioavailability in [5] was roughly 100%. Moreover, the remaining at 3 h in series [1] was greater than 95%. In the series listed under Rattus norvegicus [6], this molecule had a Clearance of 13 mL/min/kg. For the same molecule, the IC50 in series [2] was found to be 0.01 µM; in series [4], 2.3 µM; in series [3] it was 43 µM. The molecule further registered a Cmax in series [7] of 7.2 µM. The ED50 is 1 mg/kg in the series filed under Rattus norvegicus [8], 1 mg/kg in the series listed under Rattus norvegicus [9] and 1.7 mg/kg in the series with Rattus norvegicus [10].
As for `CS(=O)(=O)c1ccc(-c2c(-c3ccccc3)sc3ncnn23)cc1`, the IC50 is 0.032 µM in series [2], greater than 30 µM in series [4] and greater than 50 µM in [3].
For `CS(=O)(=O)c1ccc(-c2sc3nncn3c2-c2ccccc2)cc1`, the IC50 was 0.45 µM in series [2] and greater than 50 µM in series [3].
In the case of `COc1cccc(-c2c(-c3ccc(S(C)(=O)=O)cc3)sc3ncnn23)c1`, the IC50 in [2] was 0.26 µM; in [3], greater than 50 µM.
Regarding `Cc1nc2sc(-c3ccc(S(C)(=O)=O)cc3)c(-c3ccccc3)n2n1`, the IC50 in series [2] is 0.02 µM; in series [4] it was 10 µM; in series [3], greater than 50 µM.
For the molecule `Cc1nc2sc(-c3ccc(S(C)(=O)=O)cc3)c(-c3cccc(F)c3)n2n1`, the IC50 was 0.15 µM in [2], 14 µM in [4] and greater than 50 µM in series [3].
For the molecule `CC(C)c1nc2sc(-c3ccc(S(C)(=O)=O)cc3)c(-c3ccccc3)n2n1`, the IC50 is 0.011 µM in series [2] and 0.6 µM in series [3].
As for `CS(=O)(=O)c1ccc(-c2sc3ncnn3c2-c2ccc(F)c(F)c2)cc1`, the IC50 in series [2] is 0.048 µM; in series [4], greater than 30 µM; in series [3] it was 30 µM.
Consider `Cc1cccc(-c2c(-c3ccc(S(C)(=O)=O)cc3)sc3nc(C(F)(F)F)nn23)c1`, for which the IC50 was 0.003 µM in series [2] and 0.61 µM in series [3].

These data come from ChEMBL document CHEMBL1129864, “A new series of selective COX-2 inhibitors: 5,6-diarylthiazolo[3,2-b][1,2,4]triazoles” (Bioorg Med Chem Lett, 1997).
